Data taken from patent US20040232089A1, “Biocidal compounds for treating water” (VANETTA S.p.A., priority 2003, published 2004).

Columns and labels:
[1] = Hydrolysis test carried out in the dark; type: physicochemical
Excerpt: From the hydrolysis test carried out in the dark, MNB and MPB appear to be readily degradable at a pH compatible with environmental conditions.

[2] = Photo-degradability under daylight and UV; type: physicochemical; settings: 10 ppm in drinking water (pH 6,5-7,5)
Protocol: Similarly, the same behaviour is confirmed when evaluating the photo-degradability under daylight and UV (the irradiation test is carried out on a solution of 10 ppm in drinking water (pH 6,5-7,5)).

[3] = Excerpt: As reminded often, the water solubility is an essential feature for the candidate biocide to be used successfully in the biological control of water.
[4] = Biodegradability OECD 301 A (92/69/EEC C4-A); settings: 7 days after the beginning of the test
Protocol: In fact, based on data available with respect to the most similar compounds to the menadione derivatives disclosed herein, one would expect a degradability in the range of 0% (percentage calculated based on the initial mass expressed in mg/l) typical of menadione (2-methyl-1,4-naphthalenedione) and 17% (assessed after 28 days) typical of menadione sodium bisulphite (which calculation was performed in accordance with the guidelines OECD301 A attached to directive EEC 92/69/EEC C4-A).
Finally biodegradability was also evaluated according to standard 92/69/EEC C4-A. From the data, both MNB and MPB result to have a remarkably better biodegradability than 2-methyl-1,4-naphthalenedione and particularly than MSB.

Compound | ½ LIFE (hydrolysis) ([1]; pH 6, 8, in the dark) | ½ LIFE (hydrolysis) ([1]; pH 9, in the dark) | Light exp. Tot Degr. [2] | Sol. in H2O [3] | Light exp. ½ life [2] | degradability relative to that of MSB [4]
O=C1C=CC(=O)c2c(O)cccc21 [Juglone, 5-hydroxy-1,4-naphthalenedione, reference compound] | >288 h | 15 h | 48 h |  |  | 
CC1(S(=O)(=O)O)CC(=O)c2ccccc2C1=O.Cc1cc(C)[nH]c(=O)n1 (centres unmarked) [MPB, menadione dimethylpyrimidinole bisulphite] | 48 h | <3 h | 48 h | 10 gr/l | 10 h | eight
CC1=CC(=O)c2ccccc2C1=O [Menadione, 2-methyl-1,4-naphthalenedione, reference compound] | 1500 h | 550 h | >5000 h | ins. | 1500 h | 
